Data published in patent US12636340B2, “Methods of treating multiple myeloma” (ONYX PHARMACEUTICALS, INC., priority 2020, dated 2026).

Type: in vivo
Details: both treatment groups together
Procedure: Key exclusion criteria related to significant baseline pulmonary and cardiac disease, including uncontrolled hypertension (defined as an average systolic blood pressure >159 mmHg or diastolic >99 mmHg despite optimal treatment). Analysis of LVEF changes over time was conducted. Long-term corticosteroid treatment equivalent to a dexamethasone dose of 4.0 mg/day or prednisone at a dose of >20 mg/day was not permitted while receiving study treatment. Corticosteroids administered short-term (up to 2 weeks) were permitted, provided the cumulative dose was less than a 40 mg per week dexamethasone equivalent.
Randomization was performed using an interactive voice or web response system. […]
Statistical analysis: Efficacy evaluations were based on the intention-to-treat population. […] For primary and key secondary endpoints, response and disease progression were determined by a blinded Independent Review Committee. Additionally, they were determined locally by investigators in an unblinded manner and centrally by the sponsor using a validated computer algorithm, which served as sensitivity analysis of PFS.
Descriptive statistics identified the extent of missing data. […] For patients who died on study, the death date was recorded on the end of study CRF page at the end of the study date. […]

CC(C)C[C@H](NC(=O)[C@H](CCc1ccccc1)NC(=O)CN1CCOCC1)C(=O)N[C@@H](Cc1ccccc1)C(=O)N[C@@H](CC(C)C)C(=O)[C@@]1(C)CO1 [carfilzomib]
patients who discontinued carfilzomib due to AEs, overall: 21.3%
